Broadly, the EC50 is the midpoint of the concentration-response curve.

Data on 16 compounds can be found in patent publication US10590121B2, “Kinase inhibitors and methods for making and using” (Rigel Pharmaceuticals, Inc., priority 2017, dated 2020).

For assay [1], the system named is LPS induced IL-23 (p19/p40) in DC cells differentiated from human PBMC. Nature of the assay: IL23-p19 ELISA, dendritic cells (DC differentiated from human PBMC), IFNγ primed, LPS stimulated. Format: cell-based. Particulars: human PBMC-derived dendritic cells, 1 μg/ml LPS, 18 hours, 10 pt. Here is the method: Compound Screening Using DC Cells
1. Differentiation of PBMC's to DC Cells:
Human PBMC cells (400 million) obtained from the vendor were transferred into a T-175 flask containing 15 ml RPMI media (10% FBS) and incubate for 2 hours at 37° C. After 2 hours, the media including floating cells was aspirated out carefully and 12 ml of fresh RPMI media (10% FBS) containing GMCSF (100 ng/ml) and IL4 (20 ng/ml) was added, and the flask was kept in a 37° C. incubator for 7 days.
After 3 days, fresh GMCSF (100 ng/ml) and IL4 (20 ng/ml) were added to the flask and the incubation continued. After 7 days, the fully differentiated cells were harvested by spinning down (1200 rpm/5 min) and aspirating the media. The cells were suspended in fresh RPMI media (10% FBS) containing 50 ng/ml IFNγ (1000 U/ml) and then plated (50K/well in 100 μl) onto a white clear bottom 96 well plate and left in a 37° C. incubator for 24 hours.
2. Addition of Compounds:
After 24 hours incubation, 100 μl of RPMI media was added containing 2× concentrated test compound per well to the above cell-culture media (final concentration becomes 1×) and the plates were pre-incubated for 1 hour at 37° C. before stimulating with LPS.
After 1 hour compound pre-incubation, 10 μl per well of 20× concentrated LPS solution in RPMI media was added to give a final concentration of 1 μg/ml. The mixture was shaken and incubated the plates at 37° C. for an additional 18 hours.
155 μl of the supernatant was harvested from each well carefully (without the tip touching the bottom of the well) and to the remaining 50 μl/well of the cell culture plate was added 50 μl of Cell Titer Glo reagent. The mixture was incubated for 1-2 minutes on a shaker and the plate was read for luminescence intensity to determine the compound cytotoxicity. The cell culture supernatant collected above was used to carry out IL23 ELISA (65 μl-Supernatant) and IL10 ELISA (90 μl-Supernatant) as described below.
Human IL-23 (p19/p40) ELISA Protocol (e-Biosciences)
To 10.5 ml PBS add 50 μl of anti-IL23 (p19) was added capture antibody (2.5 μg/ml). The mixture was mixed well and 100 μl of the coating solution was added to each well of the 96 well white plates from Pierce. The wells were covered and incubated overnight at 4° C.
The anti-IL23 (p19)-antibody-coated plates were washed 2× using TBST (use plate washer) and blocked using 200 μl of 0.5% Casein for 1.5-2 hours at room temperature with shaking.
The plates were washed 2× using TBST and the supernatant was transferred (65 μl/well) to the above pre-blocked/IL23 (p19)-antibody-coated 96 well plate, and incubated at room temperature for 1.5 hours with shaking.
The plates were washed 4× using TBST (plate washer) and 100 μl/well detection antibody solution prepared from 2 μl of biotin labeled anti-IL-12 (p40/p70) antibody in 11 ml 1% BSA/PBS solution (1-5000 dilution) was added. The plates were incubated for 1 hour with shaking at room temperature.
Again, the plates were washed 4× with TBST and 100 μl of HRP labeled Streptavidin (R&D Systems) solution (10 μl/10 ml 1% BSA solution) was added, and the plates were incubated at room temperature for another 45 minutes with shaking.
After 45 minutes, the plates were washed with TBST 4× and 100 ul/well Super Signal ELISA Pico Chemiluminescent Substrate from Pierce (3.5 ml A+3.5 ml B+3.5 ml MQ water) was added. The plates were shaken for 1-2 minutes then read on a plate reader.

Assay [2] concerns LPS induced IL23p19 in THP-1 cells. Nature of the assay: LPS Induced IL23p19 in THP-1 Cells (with IFNγ Primed) Assay. Format: cell-based. As to conditions: Homo sapiens; THP-1 cells primed with IFNγ 50 ng/mL, 1 μg/mL LPS, 18 hours, 10 pt; read-out: IL23-p19 ELISA, THP1-IFNy, LPS, 10 pt EC50. The text has this:
LPS Induced IL23p19 in THP-1 Cells (with IFNγ Primed) Assay
THP-1 Cells (ATCC, Cat # TIB-202), Dimethyl Sulfoxide (DMSO) (Sigma-Aldrich, Cat # D2650), RPMI 1640 (Cellgro, Cat #10-040-CM), Fetal Bovine Serum (Sigma, Cat # F4135), Albumin From Bovine Serum (BSA) (Sigma-Aldrich, Cat # A7906), LPS (Serotype K-235, Sigma, Product Number L 2143), IFNγ (Peprotech, Cat #300-02), Capture antibody: Human IL-23p19 ELISA (e-Bioscience, Cat. #14-7238-85), Detection antibody: Primary Mouse Biotinylated anti-human IL-12 (p40/p70) (e-Bioscience, Cat. #13-7129-85), Secondary HRP-conjugated Streptavidin (R&D Systems, Cat # DY998), 1×PBST Washing Buffer (PBS-Tween tablet) (VWR International, Cat #80058-558), ELISA Blocking Buffer (PBS with 1% BSA), ELISA Dilution Buffer (PBS with 1% BSA), 384 Well Flat-Bottom, MaxiSorp Black Immuno Plates (Thermo Scientific, Cat #12-565-346), 384 Well Flat-Bottom, White Tissue Culture Plates (Thermo Scientific, Cat #12-565-343), Super Signal ELISA Pico Chemiluminescent Substrate (Thermo Scientific, Cat #37070), Cell Titer Glo reagent (Promega, Cat # G7573), Positive control, IKK2VI inhibitor (Calbiochem, Cat #401483), AquaMax 4000 plate washer (Molecular Devices), Luminometer, Wallac Victor2 1420 Multilabel Counter.
On day 1, 50K/well THP-1 cells were seeded and primed with IFNγ (50 ng/mL) in 384-well plates for about 18 hours in RPMI media with 10% FBS. On day 2, the compound was serially diluted in DMSO from 5 mM in 3-fold dilutions, and then diluted 1:125 in RPMI media with 10% FBS. 50 μL/well 2× compound was added to 50 μL/well THP-1 cells (with IFNγ primed) in duplicate in 384 well tissue culture plates. The cells were pre-incubated with compound for 1 hour at 37° C., 5% CO2 before addition of 10 μL/well 11×LPS to give a final concentration of 1 μg/mL LPS. Day 3, after stimulation for 18 hours at 37° C., 5% CO2, the assay plate was centrifuged and 70 μL/well supernatant was harvested. IL-23p19 protein in 70 μL/well of supernatant was measured by sandwich ELISA, and 25 μl/well Cell Titer Glo reagent was added to the remaining cells to measure compound toxicity.
Human IL-23p19 Sandwich ELISA:
Maxisorp immuno ELISA plates were pre-coated with 25 μL/well of anti-IL-23p19 capture antibody (2.5 ug/mL) in PBS overnight at room temperature. After washing with 1×PBST, the plates were blocked using 100 μL/well of 1% BSA in PBS for 2 hours at room temperature. The plates were washed three times with 1×PBST and 70 μL/well supernatant were added. The plates were incubated at room temperature for 2 hours with shaking and washed three times with 1×PBST. 25 μL/well of biotin labeled anti-IL-12 (p40/p70) detection antibody (100 ng/mL) in PBS with 1% BSA was added and the plates were incubated at room temperature for 2 hours with shaking. After washing three times with 1×PBST, 25 μL/well of streptavidin-HRP (1:200) in PBS with 1% BSA was added and the plates were incubated at room temperature for 20 minutes with shaking. The plates were washed three times with 1×PBST and 25 μL/well of Super Signal ELISA Pico Chemiluminescent Substrate were added. The plates were read with a luminometer, and the chemiluminescence values were entered into Athena (Rigel) for curve fitting, EC50 calculation, and database storage.
(An ELISA detects its analyte on a solid surface through an enzyme-linked reagent.)

Consider `O=C(Nc1ccc(N2CCOCC2)cc1N1CCOCC1)c1ccc(-c2cn[nH]c2)o1` [I-14, N-(2,4-dimorpholinophenyl)-5-(1H-pyrazol-4-yl)furan-2-carboxamide], for which the concentration giving a half-maximal response (EC50) was found to be 1920 nM in assay [1] and 178 nM in assay [2].

With `O=C(Nc1ccc(N2CCOCC2)cc1N1CCOCC1)c1csc(-c2cn[nH]c2)n1` [I-15, N-(2,4-dimorpholinophenyl)-2-(1H-pyrazol-4-yl)thiazole-4-carboxamide], the EC50 stood at 484 nM in assay [1] and 173 nM in assay [2].

On to `CC1(O)CCN(c2cc(N3CCOCC3)ccc2NC(=O)c2cccc(-c3cn[nH]c3)n2)CC1` [I-16, N-(2-(4-hydroxy-4-methylpiperidin-1-yl)-4-morpholinophenyl)-6-(1H-pyrazol-4-yl)picolinamide], for which the EC50 in assay [1] came to 1720 nM; in assay [2] it was 740 nM.

Consider `CC1(O)CCN(c2cc(N3CCOCC3)ccc2NC(=O)c2ccc(-c3cn[nH]c3)o2)CC1` [I-17, N-(2-(4-hydroxy-4-methylpiperidin-1-yl)-4-morpholinophenyl)-5-(1H-pyrazol-4-yl)furan-2-carboxamide], for which the 50% effective concentration (EC50) in assay [1] was found to be 166 nM; in assay [2] it was 216 nM.

Regarding `CC1(O)CCN(c2cc(N3CCOCC3)ccc2NC(=O)c2csc(-c3cn[nH]c3)n2)CC1` [I-18, N-(2-(4-hydroxy-4-methylpiperidin-1-yl)-4-morpholinophenyl)-2-(1H-pyrazol-4-yl)thiazole-4-carboxamide], the values for the EC50 in assay [1] and in assay [2] were 106 nM and 95.1 nM, respectively.

For `O=C(Nc1ccc(N2CCOCC2)cc1N1CCC(F)(F)CC1)c1ccc(-c2cn[nH]c2)o1` [I-20, N-(2-(4,4-difluoropiperidin-1-yl)-4-morpholinophenyl)-5-(1H-pyrazol-4-yl)furan-2-carboxamide], the EC50 amounted to 1120 nM in assay [1] and 2330 nM in assay [2].

As for `O=C(Nc1ccc(N2CCOCC2)cc1N1CCC(F)(F)CC1)c1csc(-c2cn[nH]c2)n1` [I-21, N-(2-(4,4-difluoropiperidin-1-yl)-4-morpholinophenyl)-2-(1H-pyrazol-4-yl)thiazole-4-carboxamide], the concentration giving a half-maximal response (EC50) in assay [1] is 1000 nM; in assay [2], 465 nM.

`O=C(Nc1ccc(N2CCOCC2)cc1N1CCCC1)c1cccc(-c2cn[nH]c2)n1` [I-22, N-(4-morpholino-2-(pyrrolidin-1-yl)phenyl)-6-(1H-pyrazol-4-yl)picolinamide]: the values for the EC50 in assay [1] and in assay [2] were 16400 nM and 3230 nM, respectively.

`O=C(Nc1ccc(N2CCOCC2)cc1N1CCCC1)c1ccc(-c2cn[nH]c2)o1` [I-23, N-(4-morpholino-2-(pyrrolidin-1-yl)phenyl)-5-(1H-pyrazol-4-yl)furan-2-carboxamide]: the EC50 in assay [1] came to 2270 nM; in assay [2] it was 2860 nM.

Take `O=C(Nc1ccc(N2CCOCC2)cc1N1CCCC1)c1csc(-c2cn[nH]c2)n1` [I-24, N-(4-morpholino-2-(pyrrolidin-1-yl)phenyl)-2-(1H-pyrazol-4-yl)thiazole-4-carboxamide]: the figures for the EC50 in assay [1] and in assay [2] were 794 nM and 836 nM, respectively.

As to `O=C(Nc1cc(N2CCOCC2)ccc1N1CCCCC1)c1ccc(-c2cn[nH]c2)o1` [I-25, N-(5-morpholino-2-(piperidin-1-yl)phenyl)-5-(1H-pyrazol-4-yl)furan-2-carboxamide], the figures for the EC50 in assay [1] and in assay [2] were 532 nM and 645 nM, respectively.

As to `O=C(Nc1cc(N2CCOCC2)ccc1N1CCCCC1)c1csc(-c2cn[nH]c2)n1` [I-26, N-(5-morpholino-2-(piperidin-1-yl)phenyl)-2-(1H-pyrazol-4-yl)thiazole-4-carboxamide], the EC50 stood at 847 nM in assay [1] and 554 nM in assay [2].

For the compound `O=C(Nc1cc(OCCN2CCOCC2)ccc1N1CCCCC1)c1cccc(-c2cn[nH]c2)n1` [I-27, N-(5-(2-morpholinoethoxy)-2-(piperidin-1-yl)phenyl)-6-(1H-pyrazol-4-yl)picolinamide], the EC50 in assay [1] worked out at 857 nM; in assay [2], 2990 nM.

Take `O=C(Nc1cc(OCCN2CCOCC2)ccc1N1CCCCC1)c1ccc(-c2cn[nH]c2)o1` [I-28, N-(5-(2-morpholinoethoxy)-2-(piperidin-1-yl)phenyl)-5-(1H-pyrazol-4-yl)furan-2-carboxamide]: the values for the half-maximal effective concentration (EC50) in assay [1] and in assay [2] were 63.8 nM and 189 nM, respectively.

Consider `O=C(Nc1cc(OCCN2CCOCC2)ccc1N1CCCCC1)c1csc(-c2cn[nH]c2)n1` [I-29, N-(5-(2-morpholinoethoxy)-2-(piperidin-1-yl)phenyl)-2-(1H-pyrazol-4-yl)thiazole-4-carboxamide], for which the EC50 came to 51.2 nM in assay [1] and 105 nM in assay [2].

Take `O=C(Nc1cc(CCN2CCOCC2)c(F)cc1N1CCCCC1)c1ccc(-c2cn[nH]c2)o1` [I-31, N-(4-fluoro-5-(2-morpholinoethyl)-2-(piperidin-1-yl)phenyl)-5-(1H-pyrazol-4-yl)furan-2-carboxamide]: the results for the EC50 in assay [1] and in assay [2] were 63.8 nM and 17200 nM, respectively.
